In US20060234373A1, “Treatment for diabetes” (priority 2002, published 2006):
Marks after values point to notes of the source that are not given here.

Experiments:
normal Wistar rats = assay: Pancreatic insulin content in normal rats treated with TGF-α and gastrin; type: in vivo, rat; settings: 0.8 μg/day each i.p. for 10 days, mean±SEM
Description: Normal Wistar and Zucker rats were allowed normal chow ad libidum with free access to water and were acclimatized for one week prior to initiation of each study. Freshly prepared streptozotocin at a dose of 80 mg/kg body weight was administered by I.V. five to seven days after induction of diabetes, the rats were randomly allocated into groups for subsequent treatment. In examples 1-4, TGF-α and rat gastrin were reconstituted in sterile normal saline containing 0.1% BSA. According to the predetermined treatment schedule for different studies, each animal received a single, daily i.p. injection of either TGF-α or gastrin alone (4.0 μg/kg body weight) or as a 1:1 (w/w) combination (total 8.0 μg/kg) or PBS for a period of 10 days. […]
At the end of the study period (10 days), all animals were sacrificed and samples of pancreas taken as follows: five biopsy specimens (1-2 mg) of pancreatic tissue were taken from separate representative sites in each rat pancreas and immediately snap frozen in liquid nitrogen for analysis of insulin content. […] Pancreatic insulin content values were corrected according to protein content and finally expressed as μg insulin/mg pancreatic protein. All values calculated as mean±SEM and statistical significance evaluated using Student's 2-sample t-test.

isolated human islets = assay: β-cell population of isolated human islets maintained in culture; type: cell-based
Description: The purpose of this experiment was to determine whether treatment with EGF and gastrin can increase the β-cell population of human islets in vitro and by what mechanism. Islet cell preparations were isolated from human donor pancreases (n=5) and prepared according to the approved protocol used for preparation of human islets for islet cell transplantation (Lakey JRT et al (1999) Cell transplant 8:285-292, and Ricordi C. et al. (1988) Diabetes 37:413-420). Islet cells were seeded at a concentration of 1×10^6 cells per dish and cultured for 4 weeks in serum free-MEM medium alone or supplemented with EGF (0.3 μg/ml), gastrin (1.0 μg/ml), or EGF+gastrin in combination for 4 weeks and maintained in culture for an additional 4 weeks.

With Gastrin the “Pancreatic Insulin Content” value (normal Wistar rats) was 51.4 +/− 14.0** μg insulin/mg protein, the β-cell mass change (isolated human islets; after 4 weeks culture, EGF 0.3 μg/ml, gastrin 1.0 μg/ml, medium alone −60%) was −1% and the “induction of PDX-1 expression on CK19+ ductal cells” value (isolated human islets; human islets in culture) was “mainly responsible for induction of PDX-1 expression”.

For “TGF-α: recombinant Human TGF-α, an EGF receptor ligand”, the “Pancreatic Insulin Content” value (normal Wistar rats) was 30.4 +/− 7.4* μg insulin/mg protein.
